Experimental data taken from patent US12024531B2, “Immunoproteasome inhibitors” (Principia Biopharma Inc., priority 2017, dated 2024).

What was measured:
[1] = molecular target: immunoproteasome LMP2 subunit (Homo sapiens, UniProt P28065); experiment: Caliper-based proteasome enzymatic activity assay, LMP2; type: biochemical; details: human recombinant immunoproteasome 0.3 nM, FAM peptide substrate 1 μM, rt 2 h
[2] = molecular target: immunoproteasome LMP7/B5i subunit (Homo sapiens, UniProt P28062); experiment: Caliper-based proteasome enzymatic activity assay, LMP7; type: biochemical; details: human recombinant immunoproteasome 0.3 nM, FAM peptide substrate 1 μM, rt 3 h
[3] = molecular target: constitutive proteasome β5c subunit (Homo sapiens, UniProt P28074); experiment: Caliper-based proteasome enzymatic activity assay, β5c; type: biochemical; details: human recombinant constitutive proteasome 0.3 nM, FAM peptide substrate 1 μM, rt 3 h
PBMC LMP7 = PBMC LMP7 (Homo sapiens, UniProt P28062); experiment: Inhibition of proteasome activity in cells (Proteasome-Glo), PBMC/LMP7; type: cell-based; details: 2 h incubation at 37° C.
Description: The cell-based effects of a compound described herein on the immunoproteasome were determined by measuring inhibition of proteasome activity in cells using the Proteasome-Glo™ Cell-Based Reagent (Promega, Madison WI). The Proteasome-Glo™ assay contains a specific luminogenic proteasome substrate in a buffer optimized for cell permeabilization, proteasome activity, and luciferase activity. For the chymotrypsin-like activity (LMP7 and 05c), the peptide substrate is Suc-LLVY-aminoluciferin (Succinyl-leucine-leucine-valine-tyrosine-aminoluciferin). Cleavage of the substrate by proteasome results in luminescent signal which is proportional to the proteasome activity. The cell line THP-1 (a monocytic leukemia cell line enriched in immunoproteasome), the cell line HT-29 (a colorectal adenocarcinoma cell line enriched in constitutive proteasome), and primary human peripheral blood mononuclear cells (PBMC) were used to assess proteasome activity. Cells were seeded in a 96-well plate at 10,000 cells per well in RPMI 1640 high glucose medium with 10% fetal bovine serum (FBS). Compound dilutions were added to cells starting at a concentration of 5 uM and decreasing in tripling dilutions. The final DMSO concentration was 1%. The concentration range was adjusted as needed for compounds of different potencies. The cells treated with compounds were incubated for 2 h at 37° C. in 5% CO2. At the end of the 2 hour incubation period, cells were transferred to white 384 well assay plates. 20 uL of Proteasome-Glo™ Reagent was added to each well and incubated for 10 minutes at rt. The plate was read in the Analyst HT instrument (Molecular Devices, Sunnyvale, CA) using luminescence mode. The percent inhibition of activity was plotted as a function of log compound concentration. The IC50 was then calculated for each compound using Prism software from GraphPad Software Inc. (San Diego, CA).

| Structure (SMILES) | IC50 [1] [nM] | IC50 [2] [nM] | IC50 [3] [nM] | IC50 (PBMC LMP7) [nM] |
| --- | --- | --- | --- | --- |
| N#CC(=Cc1cccc(CCOC(=O)N[C@@H](Cc2ccccc2)B(O)O)c1)c1ncccn1 [Example 60, (R)-(1-(((3-(2-cyano-2-(pyrimidin-2-yl)vinyl)phenethoxy)carbonyl)amino)-2-phenylethyl)boronic Acid] | 1020 | 1.1 | 167 | 2 |
| N#CC(=Cc1cccc(CCOC(=O)N[C@@H](Cc2ccccc2)B(O)O)c1)C(=O)N1C2CCC1COC2 [Example 67, ((1R)-1-(((3-(3-(3-oxa-8-azabicyclo[3.2.1]octan-8-yl)-2-cyano-3-oxoprop-1-en-1-yl)phenethoxy)carbonyl)amino)-2-phenylethyl)boronic Acid] | 2320 | 0.4 | > 5000 | 2 |
| Cc1ccc(C[C@H](NC(=O)OCCc2cccc(C=C(C#N)C(=O)N(C)C)c2)B(O)O)cc1 [Example 50, (R)-(1-(((3-(2-cyano-3-(dimethylamino)-3-oxoprop-1-en-1-yl)phenethoxy)carbonyl)amino)-2-(p-tolyl)ethyl)boronic Acid] | > 5000 | 1.5 | 1090 | 4 |
| N#CC(=Cc1cccc(CCOC(=O)N[C@@H](Cc2coc3ccccc23)B(O)O)c1)c1ccccn1 [Example 35, (R)-(2-(benzofuran-3-yl)-1-(((3-(2-cyano-2-(pyridin-2-yl)vinyl)phenethoxy)carbonyl)amino)ethyl)boronic Acid] | > 5000 | 2 | 66 | 3 |
| N#CC(=Cc1cccc(CCOC(=O)N[C@@H](Cc2ccccc2)B(O)O)c1)c1ncccc1F [Example 54, (R)-(1-(((3-(2-cyano-2-(3-fluoropyridin-2-yl)vinyl)phenethoxy)carbonyl)amino)-2-phenylethyl)boronic Acid] | > 5000 | 3.3 | 610 | 4 |
| CCN(CC)C(=O)C(C#N)=Cc1cccc(CCOC(=O)N[C@@H](Cc2ccc(C)cc2)B(O)O)c1 [Example 55, (R)-(1-(((3-(2-cyano-3-(diethylamino)-3-oxoprop-1-en-1-yl)phenethoxy)carbonyl)amino)-2-(p-tolyl)ethyl)boronic Acid] | > 5000 | 2 | 1180 | 4 |
| CCN(CC)C(=O)C(C#N)=Cc1cccc(CCOC(=O)N[C@@H](Cc2coc3ccccc23)B(O)O)c1 [Example 58, (R)-(2-(benzofuran-3-yl)-1-(((3-(2-cyano-3-(diethylamino)-3-oxoprop-1-en-1-yl)phenethoxy)carbonyl)amino)ethyl)boronic Acid] | > 5000 | 1.7 | 255 | 12 |
| CCN(C(=O)C(C#N)=Cc1cccc(CCOC(=O)N[C@@H](Cc2ccccc2)B(O)O)c1)C1CCOCC1 [Example 70, (R)-(1-(((3-(2-cyano-3-(ethyl(tetrahydro-2H-pyran-4-yl)amino)-3-oxoprop-1-en-1-yl)phenethoxy)carbonyl)amino)-2-phenylethyl)boronic Acid] | 4250 | 0.6 | > 5000 | 2 |
| Cc1ccc(C[C@H](NC(=O)CCOc2cccc(C=C(C#N)c3ccccn3)c2)B(O)O)c(C)c1 [Example 45, (R)-1-(3-(3-(2-cyano-2-(pyridin-2-yl)vinyl)phenoxy)propanamido)-2-(2,4-dimethylphenyl)ethylboronic Acid] | 1250 | 4.3 | 92.7 | – |
| CN(C(=O)C(C#N)=Cc1cccc(CCOC(=O)N[C@@H](Cc2ccccc2)B(O)O)c1)C(C)(C)C [Example 71, (R)-(1-(((3-(3-(tert-butyl(methyl)amino)-2-cyano-3-oxoprop-1-en-1-yl)phenethoxy)carbonyl)amino)-2-phenylethyl)boronic Acid] | 2010 | 0.9 | 2420 | – |
| N#CC(=Cc1cccc(CCCC(=O)N[C@@H](Cc2ccccc2)B(O)O)c1)n1cncn1 [Example 25, (R)-(1-(4-(3-(2-cyano-2-(1H-1,2,4-triazol-1-yl)vinyl)phenyl)butanamido)-2-phenylethyl)boronic Acid] | 3000 | 8 | 4150 | – |
| Cc1ccc(C[C@H](NC(=O)OCCc2cccc(C=C(C#N)c3ccc(C(F)(F)F)cn3)c2)B(O)O)cc1 [Example 81, (R)-(1-(((3-(2-cyano-2-(5-(trifluoromethyl)pyridin-2-yl)vinyl)phenethoxy)carbonyl)amino)-2-(p-tolyl)ethyl)boronic Acid] | 2830 | 5.2 | 438 | – |
| COc1ccc(C=C(C#N)C(=O)N(C)C)cc1OCCC(=O)N[C@@H](Cc1ccccc1)B(O)O [Example 26, (R)-(1-(3-(5-(2-cyano-3-(dimethylamino)-3-oxoprop-1-en-1-yl)-2-methoxyphenoxy)propanamido)-2-phenylethyl)boronic Acid] | 310 | 4 | 34 | – |
| COc1cccnc1C(C#N)=Cc1cccc(OCCC(=O)N[C@@H](Cc2ccccc2)B(O)O)c1 [Example 51, (R)-(1-(3-(3-(2-cyano-2-(3-methoxypyridin-2-yl)vinyl)phenoxy)propanamido)-2-phenylethyl)boronic Acid] | 306 | 20.2 | 122 | – |
| Cn1cnc(C(C#N)=Cc2cccc(CCOC(=O)N[C@@H](Cc3ccccc3)B(O)O)c2)cc1=O [Example 84, (R)-(1-(((3-(2-cyano-2-(1-methyl-6-oxo-1,6-dihydropyrimidin-4-yl)vinyl)phenethoxy)carbonyl)amino)-2-phenylethyl)boronic Acid] | 2020 | 1.9 | 240 | – |
| N#CC(=Cc1cccc(CCOC(=O)N[C@@H](Cc2ccccc2)B(O)O)c1)c1ccc(C#N)cn1 [Example 78, (R)-(1-(((3-(2-cyano-2-(5-cyanopyridin-2-yl)vinyl)phenethoxy)carbonyl)amino)-2-phenylethyl)boronic Acid] | 690 | 1.6 | 390 | – |
| COC(C)(C)CNC(=O)C(C#N)=Cc1cccc(OCCC(=O)N[C@@H](Cc2ccccc2)B(O)O)c1 [Example 48, (R)-(1-(3-(3-(2-cyano-3-((2-methoxy-2-methylpropyl)amino)-3-oxoprop-1-en-1-yl)phenoxy)propanamido)-2-phenylethyl)boronic Acid] | 415 | 5.1 | 90.4 | – |
| CN(C)C(=O)C(C#N)=Cc1cccc(CCCC(=O)N[C@@H](Cc2ccccc2)B(O)O)c1 [Example 24, (R)-(1-(4-(3-(2-cyano-3-(dimethylamino)-3-oxoprop-1-en-1-yl)phenyl)butanamido)-2-phenylethyl)boronic Acid] | 1890 | 12 | 1930 | – |
| CCN(CC)C(=O)C(C#N)=Cc1cccc(CCOC(=O)N[C@@H](Cc2ccccc2)B(O)O)c1 [Example 52, (R)-(1-(((3-(2-cyano-3-(diethylamino)-3-oxoprop-1-en-1-yl)phenethoxy)carbonyl)amino)-2-phenylethyl)boronic Acid] | > 5000 | 10.3 | > 5000 | 44 |
| N#CC(=Cc1cccc(OCCC(=O)N[C@@H](CCc2ccccc2)B(O)O)c1)c1ccccn1 [Example 21, (R)-(1-(3-(3-(2-cyano-2-(pyridin-2-yl)vinyl)phenoxy)propanamido)-3-phenylpropyl)boronic Acid] | > 5000 | 27 | 260 | 8 |
